Experimental data published in patent US20230365592A1 (Agios Pharmaceuticals, Inc., priority 2022, published 2023).

Each compound was assayed against T1, human PAH with the R408W mutation (Homo sapiens, UniProt P00439, R408W) (assay: Cell Based Phenylalanine Flux Assay). Details: A375 cells expressing R408W PAH; 24 hrs with compound, then 20 µM sepiapterin and 800 µM 13C9,15N-Phenylalanine for 4 hours; 13C-Tyrosine by LC-MS; average where tested multiple times; read-out: AC50.
T1 construct: expressed in transfected cells
T1 sequence (P00439 1-452 R408W): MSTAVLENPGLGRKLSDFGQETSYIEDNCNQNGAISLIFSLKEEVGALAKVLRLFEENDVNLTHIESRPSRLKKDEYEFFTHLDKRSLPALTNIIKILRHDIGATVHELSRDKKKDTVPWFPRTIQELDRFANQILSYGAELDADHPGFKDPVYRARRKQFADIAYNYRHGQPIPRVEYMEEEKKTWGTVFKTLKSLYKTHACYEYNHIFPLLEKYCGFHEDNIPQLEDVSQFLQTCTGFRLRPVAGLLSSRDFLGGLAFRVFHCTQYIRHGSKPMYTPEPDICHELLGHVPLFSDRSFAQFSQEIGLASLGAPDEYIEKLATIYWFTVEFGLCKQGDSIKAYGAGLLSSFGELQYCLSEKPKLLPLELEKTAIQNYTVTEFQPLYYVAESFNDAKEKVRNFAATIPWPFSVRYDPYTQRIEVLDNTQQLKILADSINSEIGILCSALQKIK
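Further: after compound treatment, cells received sepiapterin plus isotope-labelled Phenylalanine for 4 hours, then labelled Tyrosine in the medium was quantified, 10-point 2-fold dilution series run in duplicate.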

| AC50 | Structure (SMILES) |
| --- | --- |
| 1000 to 5000 nM | Nc1ccc(N2CCc3[nH]cnc3C2c2cc3c(C(F)F)cccn3n2)nc1 (centres unmarked) |
| 1000 to 5000 nM | Cc1ncccc1-c1nnc(N2CCc3[nH]cnc3C2c2cc3ccccn3n2)o1 (centres unmarked) |
| 1000 to 5000 nM | Cc1nnc(C(=O)N2CCc3[nH]cnc3C2c2cc3cccc(F)n3n2)o1 (centres unmarked) |
| > 5000 nM | Cn1cc(-c2nnc(N3CCc4[nH]cnc4C3c3cc4c(C(F)F)cccn4n3)o2)cn1 (centres unmarked) |
| 1000 to 5000 nM | Cc1cccc2cc(C3c4nc[nH]c4CCN3c3nnc(-c4cnccn4)o3)nn12 (centres unmarked) |
| > 5000 nM | Cc1nc(C(C)O)oc1C(=O)N1CCc2[nH]cnc2C1c1cc2cccc(Cl)n2n1 (centres unmarked) |
| 1000 to 5000 nM | O=C(c1nnc(-c2ncccn2)o1)N1CCc2[nH]cnc2C1c1cc2ccccn2n1 (centres unmarked) |
| 1000 to 5000 nM | Cc1cccn2nc(C3c4nc[nH]c4CCN3C(=O)c3nnc(N4CCOCC4)o3)cc12 (centres unmarked) |
| 1000 to 5000 nM | CC(C)(C)c1nnc(C(=O)N2CCc3[nH]cnc3C2c2cc3cc(C(F)(F)F)ccn3n2)o1 (centres unmarked) |

| Structure (SMILES) | AC50 |
| --- | --- |
| CC(C)c1nnc(C(=O)N2CCc3[nH]cnc3[C@@H]2c2cc3cccc(C(F)(F)F)n3n2)o1 (single isomer, unassigned) | 1000 to 5000 nM |

Same assay, conditions: A375 cells expressing human PAH R408W; 24 hrs compound incubation; 13C-Tyrosine by LC-MS; average where tested multiple times; read-out: AC50

| AC50 | Structure (SMILES) |
| --- | --- |
| > 5000 nM | Fc1cccn2nc([C@H]3c4nc[nH]c4CCN3c3ccccn3)cc12 [Example 1976, (R)-4-(4-fluoropyrazolo[1,5-a]pyridin-2-yl)-5-(pyridin-2-yl)-4,5,6,7-tetrahydro-1H-imidazo[4,5-c]pyridine] |
| 1000 to 5000 nM | Cn1cc(-c2nc(C3CC3)c(C(=O)N3CCc4[nH]cnc4[C@@H]3c3cc4c(C(F)F)cccn4n3)o2)cn1 [Example 2115, (R)-(4-cyclopropyl-2-(1-methyl-1H-pyrazol-4-yl)oxazol-5-yl)(4-(4-(difluoromethyl)pyrazolo[1,5-a]pyridin-2-yl)-1,4,6,7-tetrahydro-5H-imidazo[4,5-c]pyridin-5-yl)methanone] |
| > 5000 nM | Cc1cccn2nc([C@H]3c4nc[nH]c4CCN3c3nnc(C4CCC4)o3)cc12 [Example 2480, (R)-2-cyclobutyl-5-(4-(4-methylpyrazolo[1,5-a]pyridin-2-yl)-6,7-dihydro-1H-imidazo[4,5-c]pyridin-5(4H)-yl)-1,3,4-oxadiazole] |
| 1000 to 5000 nM | Cc1nc([C@H](C)O)oc1C(=O)N1CCc2[nH]cnc2[C@H]1c1cc2cccc(C(F)(F)F)n2n1 [Example 2422, (2-((S)-1-hydroxyethyl)-4-methyloxazol-5-yl)((S)-4-(7-(trifluoromethyl)pyrazolo[1,5-a]pyridin-2-yl)-6,7-dihydro-1H-imidazo[4,5-c]pyridin-5(4H)-yl)methanone] |
| 1000 to 5000 nM | Cn1cc(-c2ccc3c(C(=O)N4CCc5[nH]cnc5[C@H]4c4cc5c(F)cccn5n4)cnn3c2)cn1 [Example 2434, (S)-(4-(4-fluoropyrazolo[1,5-a]pyridin-2-yl)-6,7-dihydro-1H-imidazo[4,5-c]pyridin-5(4H)-yl)(6-(1-methyl-1H-pyrazol-4-yl)pyrazolo[1,5-a]pyridin-3-yl)methanone] |
| < 500 nM | COc1cccn2nc([C@@H]3c4nc[nH]c4CCN3c3nnc(C(F)F)o3)cc12 [Example 2151, (S)-2-(difluoromethyl)-5-(4-(4-methoxypyrazolo[1,5-a]pyridin-2-yl)-1,4,6,7-tetrahydro-5H-imidazo[4,5-c]pyridin-5-yl)-1,3,4-oxadiazole] |
| 500 to 1000 nM | Nc1cnc(N2CCc3[nH]cnc3[C@H]2c2cc3c(C(F)F)cccn3n2)nc1 [Example 1852, (S)-2-(4-(4-(difluoromethyl)pyrazolo[1,5-a]pyridin-2-yl)-1,4,6,7-tetrahydro-5H-imidazo[4,5-c]pyridin-5-yl)pyrimidin-5-amine] |
| < 500 nM | CC(C)c1cccn2nc([C@@H]3c4nc[nH]c4CCN3C(=O)c3nnc(C4CC4)o3)cc12 [Example 1882, (S)-(5-cyclopropyl-1,3,4-oxadiazol-2-yl)(4-(4-isopropylpyrazolo[1,5-a]pyridin-2-yl)-1,4,6,7-tetrahydro-5H-imidazo[4,5-c]pyridin-5-yl)methanone] |

Same assay, conditions: A375 cells expressing human R408W PAH; 24 hrs compound incubation; 13C-Tyrosine by LC-MS; average where tested multiple times; read-out: AC50

| AC50 | Structure (SMILES) |
| --- | --- |
| > 5000 nM | Cc1ccc(-c2nnc(C(=O)N3CCc4[nH]cnc4[C@@H]3c3cc4ccccn4n3)o2)nc1 [Example 672, (R)-(5-(5-methylpyridin-2-yl)-1,3,4-oxadiazol-2-yl)(4-(pyrazolo[1,5-a]pyridin-2-yl)-6,7-dihydro-1H-imidazo[4,5-c]pyridin-5(4H)-yl)methanone] |
| 1000 to 5000 nM | Cn1ccc(-c2nnc(C(=O)N3CCc4[nH]cnc4[C@@H]3c3cc4ccc(C(F)(F)F)cn4n3)o2)n1 [Example 1129, (R)-(5-(1-methyl-1H-pyrazol-3-yl)-1,3,4-oxadiazol-2-yl)(4-(6-(trifluoromethyl)pyrazolo[1,5-a]pyridin-2-yl)-6,7-dihydro-1H-imidazo[4,5-c]pyridin-5(4H)-yl)methanone] |
| 1000 to 5000 nM | Cn1cc(-c2nnc(C(=O)N3CCc4[nH]cnc4[C@H]3c3cc4ccccn4n3)o2)cn1 [Example 626, (S)-(5-(1-methyl-1H-pyrazol-4-yl)-1,3,4-oxadiazol-2-yl)(4-(pyrazolo[1,5-a]pyridin-2-yl)-6,7-dihydro-1H-imidazo[4,5-c]pyridin-5(4H)-yl)methanone] |
| 1000 to 5000 nM | Cc1ncccc1-c1nnc(C(=O)N2CCc3[nH]cnc3[C@@H]2c2cc3cccc(C)n3n2)o1 [Example 1359, (R)-(4-(7-methylpyrazolo[1,5-a]pyridin-2-yl)-6,7-dihydro-1H-imidazo[4,5-c]pyridin-5(4H)-yl)(5-(2-methylpyridin-3-yl)-1,3,4-oxadiazol-2-yl)methanone] |
| < 500 nM | Cn1ccc(-c2nnc(C(=O)N3CCc4[nH]cnc4[C@H]3c3cc4cccc(C(F)(F)F)n4n3)o2)n1 [Example 1030, (S)-(5-(1-methyl-1H-pyrazol-3-yl)-1,3,4-oxadiazol-2-yl)(4-(7-(trifluoromethyl)pyrazolo[1,5-a]pyridin-2-yl)-6,7-dihydro-1H-imidazo[4,5-c]pyridin-5(4H)-yl)methanone] |
| < 500 nM | FC(F)c1nnc(N2CCc3[nH]cnc3[C@H]2c2cc3c(Cl)cccn3n2)o1 [Example 1739, (S)-2-(4-(4-chloropyrazolo[1,5-a]pyridin-2-yl)-6,7-dihydro-1H-imidazo[4,5-c]pyridin-5(4H)-yl)-5-(difluoromethyl)-1,3,4-oxadiazole] |
| > 5000 nM | O=C(c1nnc(-c2cccnc2)o1)N1CCc2[nH]cnc2[C@@H]1c1cc2cccc(F)n2n1 [Example 1523, (R)-(4-(7-fluoropyrazolo[1,5-a]pyridin-2-yl)-6,7-dihydro-1H-imidazo[4,5-c]pyridin-5(4H)-yl)(5-(pyridin-3-yl)-1,3,4-oxadiazol-2-yl)methanone] |
| 1000 to 5000 nM | Cc1nc(C(C)(C)F)oc1C(=O)N1CCc2[nH]cnc2[C@@H]1c1cc2cccc(C)n2n1 [Example 1253, (R)-(2-(2-fluoropropan-2-yl)-4-methyloxazol-5-yl)(4-(7-methylpyrazolo[1,5-a]pyridin-2-yl)-6,7-dihydro-1H-imidazo[4,5-c]pyridin-5(4H)-yl)methanone] |
| > 5000 nM | COc1ccc(-c2nnc(C(=O)N3CCc4[nH]cnc4[C@@H]3c3cc4c(C(F)(F)F)cccn4n3)o2)nc1 [Example 933, (R)-(5-(5-methoxypyridin-2-yl)-1,3,4-oxadiazol-2-yl)(4-(4-(trifluoromethyl)pyrazolo[1,5-a]pyridin-2-yl)-6,7-dihydro-1H-imidazo[4,5-c]pyridin-5(4H)-yl)methanone] |
| < 500 nM | O=C(c1nnc(-c2ncccc2F)o1)N1CCc2[nH]cnc2[C@H]1c1cc2cccc(F)n2n1 [Example 1459, (S)-(4-(7-fluoropyrazolo[1,5-a]pyridin-2-yl)-6,7-dihydro-1H-imidazo[4,5-c]pyridin-5(4H)-yl)(5-(3-fluoropyridin-2-yl)-1,3,4-oxadiazol-2-yl)methanone] |
| 500 to 1000 nM | COc1ccc(-c2nnc(C(=O)N3CCc4[nH]cnc4[C@H]3c3cc4cccc(F)n4n3)o2)nc1 [Example 1525, (S)-(4-(7-fluoropyrazolo[1,5-a]pyridin-2-yl)-6,7-dihydro-1H-imidazo[4,5-c]pyridin-5(4H)-yl)(5-(5-methoxypyridin-2-yl)-1,3,4-oxadiazol-2-yl)methanone] |
| 1000 to 5000 nM | CC(C)(O)c1nc(Cl)c(C(=O)N2CCc3[nH]cnc3[C@@H]2c2cc3c(F)cccn3n2)o1 [Example 757, (R)-(4-chloro-2-(2-hydroxypropan-2-yl)oxazol-5-yl)(4-(4-fluoropyrazolo[1,5-a]pyridin-2-yl)-6,7-dihydro-1H-imidazo[4,5-c]pyridin-5(4H)-yl)methanone] |
| 1000 to 5000 nM | Cc1nn(C)cc1-c1nnc(C(=O)N2CCc3[nH]cnc3[C@@H]2c2cc3c(C(F)F)cccn3n2)o1 [Example 1467, (R)-(4-(4-(difluoromethyl)pyrazolo[1,5-a]pyridin-2-yl)-6,7-dihydro-1H-imidazo[4,5-c]pyridin-5(4H)-yl)(5-(1,3-dimethyl-1H-pyrazol-4-yl)-1,3,4-oxadiazol-2-yl)methanone] |
| > 5000 nM | CC1(c2nnc(C(=O)N3CCc4[nH]cnc4[C@@H]3c3cc4c(F)cccn4n3)o2)CC1 [Example 1379, (R)-(4-(4-fluoropyrazolo[1,5-a]pyridin-2-yl)-6,7-dihydro-1H-imidazo[4,5-c]pyridin-5(4H)-yl)(5-(1-methylcyclopropyl)-1,3,4-oxadiazol-2-yl)methanone] |
